Data taken from US20230293535A1, “ERBB/BTK INHIBITORS” (Dizal (Jiangsu) Pharmaceutical Co., Ltd., priority 2018, published 2023).

Tests used:
Format in all cases: cell-based
[1] = molecular target: T1, human EGFR exon 20 V769_D770insASV (Homo sapiens, UniProt P00533, INS769ASV); assay: EGFR Exon20 ASV insertion cellular phosphorylation inhibition (MSD pEGFR Y1068/total EGFR); conditions: Ba/F3 EGFR ASV ins cells, 4 h compound, p-EGFR(Y1068)/total EGFR;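 further: electrochemiluminescent readout on an MSD SECTOR Imager, IL3-independent transduced cells in medium with 1% FBS, compound concentration series at 37 °C and 5% CO2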
T1 construct: expressed in transfected cells; host or cells: Ba/F3 (DSMZ ACC-300), lentiviral transduction, puromycin selection, IL3 depletion

EGFR L858R&T790M = molecular target: T2, EGFR L858R&T790M (Homo sapiens, UniProt P00533, L858R/T790M); assay: EGFR L858R and T790M cellular phosphorylation inhibition in NCI-H1975 (MSD); conditions: NCI-H1975 cells, 4 h compound, p-EGFR(Y1068)/total EGFR; read-out: EGFR L858R and T790M mutation IC50;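 further: phosphorylated and total EGFR detected by electrochemiluminescence, cells exposed to compound in medium containing 1% FBS at 37 °C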
T2 construct: host or cells: NCI-H1975

[2] = molecular target: T3, human EGFR exon 20 H773_V774insNPH (Homo sapiens, UniProt P00533, INS773NPH); assay: EGFR Exon20 NPH insertion cellular phosphorylation inhibition (MSD pEGFR Y1068/total EGFR); conditions: Ba/F3 EGFR NPH ins cells, 4 h compound, p-EGFR(Y1068)/total EGFR;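 further: IL3-independent Ba/F3 cells with constitutively phosphorylated EGFR, compound exposure at 37 °C under 5% CO2, electrochemiluminescent MSD measurement of the p-EGFR to total EGFR ratio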
T3 construct: host or cells: Ba/F3

WT EGFR cell line A-431 = assay: Cell proliferation, WT EGFR A431 (CellTiter-Glo, 72 h); conditions: Homo sapiens, A-431, 72 h, A431, 72 h proliferation; read-out: EGFR WT A431 GI50;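 further: proliferation from a luminescent ATP viability signal, expressed as 100 × (treated minus time-zero plate) over (DMSO control minus time-zero plate), cells grown with 10% FBS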
[3] = system: Her2 exon 20 insertion YVMA transduced NIH-3T3 cell line; assay: Cell proliferation, Her2 YVMAins NIH-3T3 (CellTiter-Glo, 72 h); conditions: Mus musculus, NIH3T3, 72 h, Her2 YVMAins cells, 72 h proliferation; read-out: Her2 Exon 20 YVMA insertion GI50;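 further: viable cells quantified by ATP luminescence, growth over a day-zero baseline plate expressed as percent of DMSO control growth, compound dilution series in 10% FBS medium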
WT EGFR = molecular target: T4, WT EGFR (Homo sapiens, UniProt P00533); assay: WT EGFR cellular phosphorylation inhibition in A-431 (hEGF stimulated, MSD); conditions: A431 cells, 4 h compound, then 100 ng/ml hEGF 10 min;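 further: electrochemiluminescence read-out of EGFR Tyr1068 phosphorylation expressed as ratio to total EGFR, cells kept in medium with 1% FBS, compounds tested as a concentration series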
T4 construct: host or cells: A-431

Ba/F3 EGFR NPH ins cells = assay: Cell proliferation, Ba/F3 EGFR NPH ins (CellTiter-Glo, 72 h); conditions: Ba/F3 EGFR, 72 h, Ba/F3 EGFR NPH ins, 72 h proliferation; read-out: EGFR Exon20 NPH insertion GI50;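 further: IL3-independent cells carrying constitutively phosphorylated EGFR, compound dilution series, viable cells quantified by ATP luminescence, growth relative to DMSO wells after subtracting pre-dosing (day 0) baseline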
[4] = system: NCI-H1975 EGFR L858R/T790M cells; assay: Cell proliferation, NCI-H1975 EGFR L858R/T790M (CellTiter-Glo, 72 h); conditions: Homo sapiens, NCI-H1975, 72 h, NCI-H1975, 72 h proliferation; read-out: EGFR L858R and T790M mutation GI50;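 further: viable cells quantified by luciferase-based ATP luminescence, proliferation expressed relative to DMSO-treated wells (100%) after subtracting a parallel plate read at the time of dosing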
Description: WT or mutant cells were seeded in 384 well plates at appropriate concentrations with corresponding growth media supplemented with 10% FBS, for each experiment, identical plates were prepared in duplicates, and the plates were incubated overnight. On the next day, one of each duplicated plates was dosed with tested compounds at a series of concentrations, and another one of the duplicated plate was analysied for G0 value. The dosed plates were incubate for another 72 h at 37° C. with 5% CO2 and the number of viable cells in each well of the G0 plates or the dosed plates were measured by CellTiter-Glo® Luminescent Cell Viability Assay (Promega). This assay is a luminescent method for determining the number viable cells through measurement of cellular ATP concentration by detection of luciferase activity. Detection reagents (15 µl) was dispensed into per well, and the plates were incubate for 30 min at room temperature. Then, the luminescence in each well was measured using the Envision plate reader (PerkinElmer). The percentage of proliferation was calculated based on the formula: %Proliferation= 100 × (G3 value of sample well-Go value)/(G3 value of DMSO control-Go value).

TMD-8 cells = assay: BTK (wt) cell proliferation, TMD-8 (CellTiter-Glo, 72 h); conditions: Homo sapiens, TMD8, 72 h, TMD-8 cells, 72 h, CellTiter-Glo; read-out: BTK WT TMD-8 GI50;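 further: viable cells quantified by ATP-based luminescence, proliferation expressed as percent of DMSO control after subtracting a time-zero baseline plate read at dosing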
Description: OCI-LY-10 at 3,750 cells/well, TMD-8 and Ri-1 at 2,000 cells/well, and DB at 1,250 cells/well, respectively, were sorted into 384-well plates in RPMI1640 medium with 10% FBS. After overnight incubation, all cells were incubated with compound at a series of concentrations. Meanwhile, a duplicated plate of each cell line was prepared for measuring G0 value. The dosed plates were further incubated for 72 hours and the number of viable cells was measured by CellTiter-Glo® Luminescent Cell Viability Assay (Promega), a luminescent method for determining the number of viable cells through measurement of cellular ATP concentration using Envision plate reader (PerkinElmer). The percentage of proliferation was calculated as: % Proliferation = 100 × (G3 value of sample well - G0 value)/(G3 value of DMSO control - G0 value).

Ba/F3 EGFR ASV ins cells = assay: Cell proliferation, Ba/F3 EGFR ASV ins (CellTiter-Glo, 72 h); conditions: Ba/F3 EGFR, 72 h, Ba/F3 EGFR ASV ins, 72 h proliferation; read-out: EGFR Exon20 ASV insertion GI50;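 further: IL3-independent Ba/F3 cells transduced with EGFR V769_D770insASV, cellular ATP luminescence after compound exposure, growth relative to DMSO control with the day-0 baseline reading subtracted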
DB cells = assay: BTK (wt) cell proliferation, DB (CellTiter-Glo, 72 h); conditions: Homo sapiens, DB, DB cells, CellTiter-Glo, read-out: Non-BCR activated DB GI50;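 further: DB cells in 384-well plates given a dilution series of compound, viable cells read by ATP luminescence, growth expressed versus DMSO control after subtracting a time-zero plate reading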
OCI-LY-10 cells = assay: BTK (wt) cell proliferation, OCI-LY-10 (CellTiter-Glo, 72 h); conditions: Homo sapiens, OCI-Ly10, 72 h, OCI-LY-10 cells, 72 h, CellTiter-Glo; read-out: BTK WT OCI-LY-10 GI50;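 further: viable cells quantified via cellular ATP luminescence, proliferation given as percent of DMSO control after subtracting a duplicate plate read at time of dosing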
Ri-1 cells = assay: BTK (wt) cell proliferation, Ri-1 (CellTiter-Glo, 72 h); conditions: Ri-1, 72 h, Ri-1 cells, 72 h, CellTiter-Glo; read-out: BTK WT Ri-1 GI50;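 further: viable cells quantified as cellular ATP luminescence, proliferation normalized to a time-zero plate and the DMSO control, compounds tested across a dilution series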
[5] = molecular target: T5, human Her2 exon 20 insertion mutation YVMA (Homo sapiens, UniProt P04626, INS775YVMA); assay: Her2 Exon 20 YVMA insertion cellular phosphorylation inhibition (MSD p-Her2 Y1248/total Her2); conditions: Her2 YVMAins cells, 4 h compound;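 further: lentivirally transduced NIH-3T3 cells in 1% FBS medium, electrochemiluminescent MSD read-out, graded compound concentrations at 37 °C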
T5 construct: expressed in transfected cells; host or cells: NIH-3T3, lentiviral transduction, puromycin selection
T5 sequence (P04626 with tags, fused parts or gaps INS775YVMA): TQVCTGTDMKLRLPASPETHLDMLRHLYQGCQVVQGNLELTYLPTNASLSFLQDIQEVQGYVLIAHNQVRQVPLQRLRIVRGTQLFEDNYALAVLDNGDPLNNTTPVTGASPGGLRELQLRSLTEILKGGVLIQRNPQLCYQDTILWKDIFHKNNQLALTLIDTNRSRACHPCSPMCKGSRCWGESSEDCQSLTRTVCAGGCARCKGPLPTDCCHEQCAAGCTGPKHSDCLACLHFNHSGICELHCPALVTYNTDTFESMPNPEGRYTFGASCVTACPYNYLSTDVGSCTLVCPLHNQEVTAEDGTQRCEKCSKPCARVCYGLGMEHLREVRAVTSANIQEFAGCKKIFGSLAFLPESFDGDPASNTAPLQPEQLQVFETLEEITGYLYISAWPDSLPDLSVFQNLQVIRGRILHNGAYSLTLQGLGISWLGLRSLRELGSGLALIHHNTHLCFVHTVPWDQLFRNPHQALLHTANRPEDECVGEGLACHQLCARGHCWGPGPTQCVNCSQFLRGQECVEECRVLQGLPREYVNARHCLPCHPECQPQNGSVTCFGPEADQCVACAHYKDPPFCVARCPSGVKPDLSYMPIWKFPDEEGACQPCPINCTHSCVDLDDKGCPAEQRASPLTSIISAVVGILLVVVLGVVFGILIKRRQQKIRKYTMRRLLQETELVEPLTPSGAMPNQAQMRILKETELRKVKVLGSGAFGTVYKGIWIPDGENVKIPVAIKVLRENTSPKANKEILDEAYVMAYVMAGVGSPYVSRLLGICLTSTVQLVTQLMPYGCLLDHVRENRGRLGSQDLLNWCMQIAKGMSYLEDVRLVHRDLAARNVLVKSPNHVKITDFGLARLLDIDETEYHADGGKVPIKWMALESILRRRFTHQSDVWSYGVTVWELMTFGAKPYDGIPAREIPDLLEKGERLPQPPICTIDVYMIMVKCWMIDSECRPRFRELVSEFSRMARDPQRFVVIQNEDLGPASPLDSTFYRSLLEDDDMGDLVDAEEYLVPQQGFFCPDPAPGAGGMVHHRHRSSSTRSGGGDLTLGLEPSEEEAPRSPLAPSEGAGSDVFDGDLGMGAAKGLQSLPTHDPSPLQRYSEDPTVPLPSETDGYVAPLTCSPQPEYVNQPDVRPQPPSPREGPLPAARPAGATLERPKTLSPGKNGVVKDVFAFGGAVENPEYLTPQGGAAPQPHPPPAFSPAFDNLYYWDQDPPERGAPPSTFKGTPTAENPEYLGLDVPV

T3 sequence (P00533 with tags, fused parts or gaps INS773NPH): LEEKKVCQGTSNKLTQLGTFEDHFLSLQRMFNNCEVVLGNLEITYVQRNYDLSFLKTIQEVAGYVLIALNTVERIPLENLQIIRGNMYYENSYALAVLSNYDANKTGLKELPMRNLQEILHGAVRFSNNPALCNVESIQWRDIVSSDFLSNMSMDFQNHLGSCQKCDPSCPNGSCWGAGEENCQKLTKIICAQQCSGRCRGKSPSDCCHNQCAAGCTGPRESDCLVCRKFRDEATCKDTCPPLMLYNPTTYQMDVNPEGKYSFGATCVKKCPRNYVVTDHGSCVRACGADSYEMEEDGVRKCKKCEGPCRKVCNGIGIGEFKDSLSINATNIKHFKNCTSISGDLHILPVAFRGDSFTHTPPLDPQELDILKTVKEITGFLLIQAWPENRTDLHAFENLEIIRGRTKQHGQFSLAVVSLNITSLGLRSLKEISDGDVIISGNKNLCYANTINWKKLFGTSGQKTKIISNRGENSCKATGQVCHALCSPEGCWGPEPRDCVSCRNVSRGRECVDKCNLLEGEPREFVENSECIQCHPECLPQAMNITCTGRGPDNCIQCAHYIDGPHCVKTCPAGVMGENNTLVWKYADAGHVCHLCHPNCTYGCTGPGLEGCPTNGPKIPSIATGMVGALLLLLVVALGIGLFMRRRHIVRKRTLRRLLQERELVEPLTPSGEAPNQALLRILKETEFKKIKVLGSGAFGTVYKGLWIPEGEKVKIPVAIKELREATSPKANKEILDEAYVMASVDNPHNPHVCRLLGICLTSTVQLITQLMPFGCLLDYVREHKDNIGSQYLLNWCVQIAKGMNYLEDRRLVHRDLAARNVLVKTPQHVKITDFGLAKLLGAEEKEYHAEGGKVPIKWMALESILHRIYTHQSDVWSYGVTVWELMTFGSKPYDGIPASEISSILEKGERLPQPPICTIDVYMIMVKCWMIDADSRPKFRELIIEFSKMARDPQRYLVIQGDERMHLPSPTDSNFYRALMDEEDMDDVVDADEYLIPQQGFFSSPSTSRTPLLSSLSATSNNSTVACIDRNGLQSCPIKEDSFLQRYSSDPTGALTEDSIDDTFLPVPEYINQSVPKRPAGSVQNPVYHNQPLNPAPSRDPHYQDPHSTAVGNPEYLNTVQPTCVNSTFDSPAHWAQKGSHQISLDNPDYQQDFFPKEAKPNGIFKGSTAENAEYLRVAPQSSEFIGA
T1 sequence (P00533 with tags, fused parts or gaps INS769ASV): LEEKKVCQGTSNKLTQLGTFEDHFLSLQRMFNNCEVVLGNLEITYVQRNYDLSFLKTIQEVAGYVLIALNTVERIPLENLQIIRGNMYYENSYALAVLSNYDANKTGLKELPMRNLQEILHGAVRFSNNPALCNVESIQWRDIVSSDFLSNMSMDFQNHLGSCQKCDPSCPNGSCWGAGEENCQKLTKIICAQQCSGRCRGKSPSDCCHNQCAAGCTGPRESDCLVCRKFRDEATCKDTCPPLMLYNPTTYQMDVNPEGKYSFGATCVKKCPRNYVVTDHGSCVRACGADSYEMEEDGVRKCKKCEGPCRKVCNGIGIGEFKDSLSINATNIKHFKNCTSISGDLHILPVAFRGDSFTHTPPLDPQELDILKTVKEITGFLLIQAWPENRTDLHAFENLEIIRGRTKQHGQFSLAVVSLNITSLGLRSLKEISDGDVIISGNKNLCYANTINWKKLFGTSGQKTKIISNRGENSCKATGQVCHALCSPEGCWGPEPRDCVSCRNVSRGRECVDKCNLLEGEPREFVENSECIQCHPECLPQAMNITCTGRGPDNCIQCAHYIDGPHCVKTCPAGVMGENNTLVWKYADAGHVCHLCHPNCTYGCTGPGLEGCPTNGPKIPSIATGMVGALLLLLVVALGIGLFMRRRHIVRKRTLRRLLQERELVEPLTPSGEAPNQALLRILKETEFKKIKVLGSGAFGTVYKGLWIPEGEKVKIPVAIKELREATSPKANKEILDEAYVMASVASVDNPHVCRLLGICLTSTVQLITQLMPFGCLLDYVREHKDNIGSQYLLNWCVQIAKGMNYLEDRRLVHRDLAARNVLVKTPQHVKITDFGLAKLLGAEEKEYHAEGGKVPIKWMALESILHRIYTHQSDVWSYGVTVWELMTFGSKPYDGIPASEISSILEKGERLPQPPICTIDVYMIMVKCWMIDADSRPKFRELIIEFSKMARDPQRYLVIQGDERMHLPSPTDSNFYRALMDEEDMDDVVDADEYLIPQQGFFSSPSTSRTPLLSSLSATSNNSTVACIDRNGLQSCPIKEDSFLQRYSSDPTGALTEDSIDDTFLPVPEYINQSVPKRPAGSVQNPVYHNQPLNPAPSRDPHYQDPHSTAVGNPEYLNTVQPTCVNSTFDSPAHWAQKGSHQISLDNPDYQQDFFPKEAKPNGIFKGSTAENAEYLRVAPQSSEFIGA
T4 sequence (P00533 25-1210): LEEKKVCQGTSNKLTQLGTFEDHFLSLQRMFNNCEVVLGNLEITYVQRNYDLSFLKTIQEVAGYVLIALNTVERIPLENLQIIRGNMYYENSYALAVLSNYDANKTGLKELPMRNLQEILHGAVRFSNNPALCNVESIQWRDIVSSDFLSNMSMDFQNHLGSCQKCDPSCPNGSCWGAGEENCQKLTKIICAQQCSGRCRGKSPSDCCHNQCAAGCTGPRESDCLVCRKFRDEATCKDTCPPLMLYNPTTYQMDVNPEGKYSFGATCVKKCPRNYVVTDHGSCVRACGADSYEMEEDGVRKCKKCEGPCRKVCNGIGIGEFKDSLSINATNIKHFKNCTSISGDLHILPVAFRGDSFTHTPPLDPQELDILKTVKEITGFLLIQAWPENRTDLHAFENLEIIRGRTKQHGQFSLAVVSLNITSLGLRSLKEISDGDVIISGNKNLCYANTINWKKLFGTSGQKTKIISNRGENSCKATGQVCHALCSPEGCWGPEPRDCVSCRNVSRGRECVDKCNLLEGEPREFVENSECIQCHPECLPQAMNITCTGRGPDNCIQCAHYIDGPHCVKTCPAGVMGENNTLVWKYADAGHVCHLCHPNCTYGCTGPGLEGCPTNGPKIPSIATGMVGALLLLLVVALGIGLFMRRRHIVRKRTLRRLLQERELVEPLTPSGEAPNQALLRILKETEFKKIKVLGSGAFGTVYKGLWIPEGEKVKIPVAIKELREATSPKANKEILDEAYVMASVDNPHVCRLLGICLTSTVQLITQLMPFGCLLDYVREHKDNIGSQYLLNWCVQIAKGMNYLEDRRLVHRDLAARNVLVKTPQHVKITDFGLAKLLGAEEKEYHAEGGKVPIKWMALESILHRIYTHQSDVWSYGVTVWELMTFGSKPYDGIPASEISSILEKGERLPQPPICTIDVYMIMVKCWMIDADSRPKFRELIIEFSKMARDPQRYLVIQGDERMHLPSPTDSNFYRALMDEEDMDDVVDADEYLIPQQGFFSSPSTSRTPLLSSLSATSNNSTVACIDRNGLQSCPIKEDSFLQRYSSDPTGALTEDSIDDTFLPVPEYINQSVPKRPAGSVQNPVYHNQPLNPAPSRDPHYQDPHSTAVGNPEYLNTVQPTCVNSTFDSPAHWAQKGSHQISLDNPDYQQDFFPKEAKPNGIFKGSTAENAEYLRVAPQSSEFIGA

| Structure (SMILES) | IC50 [1] [nM] | IC50 (EGFR L858R&T790M) [nM] | IC50 [2] [nM] | GI50 (WT EGFR cell line A-431) [nM] | GI50 [3] [nM] | IC50 (WT EGFR) [nM] | GI50 (Ba/F3 EGFR NPH ins cells) [nM] | GI50 [4] [nM] | GI50 (TMD-8 cells) [nM] | GI50 (Ba/F3 EGFR ASV ins cells) [nM] | GI50 (DB cells) [nM] | GI50 (OCI-LY-10 cells) [nM] | GI50 (Ri-1 cells) [nM] | IC50 [5] [nM] |
| --- | --- | --- | --- | --- | --- | --- | --- | --- | --- | --- | --- | --- | --- | --- |
| C=CC(=O)Nc1cc(Nc2ncnc(Nc3cc(F)c(Cl)cc3C(C)(C)O)n2)c(OC)cc1N1CCC[C@@H]1CN(C)C [Compound 43, (R)-N-(5-(4-(4-chloro-5-fluoro-2-(2-hydroxypropan-2-yl)phenylamino)-1,3,5-triazin-2-ylamino)-2-(2-((dimethylamino)methyl)pyrrolidin-1-yl)-4-methoxyphenyl)acrylamid] | 5.9 | 0.3 | 3.9 | 4.3 | 27.6 | 8.1 | 17.4 | 1.2 | 13.6 | 9.3 | > 3000 | 7.6 | 28.5 | 2.9 |
| C=CC(=O)Nc1cc(Nc2ncnc(Nc3ccc(Cl)c(F)c3C(C)(C)O)n2)c(OC)cc1N(C)CCN(C)C [Compound 14, N-(5-(4-(4-chloro-3-fluoro-2-(2-hydroxypropan-2-yl)phenylamino)-1,3,5-triazin-2-ylamino)-2-((2-(dimethylamino)ethyl)(methyl)amino)-4-methoxyphenyl)acrylamide] | 26.5 | 1.1 | 38.4 | 29.1 | 58.7 | 31.3 | 55.4 | 18 | 102 | 84.1 | > 3000 | 155 | 136 | 15.8 |
| C=CC(=O)Nc1cc(Nc2ncnc(Nc3ccccc3C3(O)CC3)n2)c(OC)cc1N(C)CCN(C)C [Compound 2, N-(2-((2-(dimethylamino)ethyl)(methyl)amino)-5-(4-(2-(1-hydroxycyclopropyl)phenylamino)-1,3,5-triazin-2-ylamino)-4-methoxyphenyl)acrylamide] | 13.4 | 0.5 | 19.7 | 26.6 | 45.2 | 21.3 | 56 | 13.9 | 130 | 42.2 | > 3000 | 134 | 86.6 | 4.6 |
| C=CC(=O)Nc1cc(Nc2ncnc(Nc3cc4cc[nH]c4cc3C(C)(C)O)n2)c(OC)cc1N(C)CCN(C)C [Compound 95, N-(2-((2-(dimethylamino)ethyl)(methyl)amino)-5-(4-(6-(2-hydroxypropan-2-yl)-1H-indol-5-ylamino)-1,3,5-triazin-2-ylamino)-4-methoxyphenyl)acrylamide] | 6.2 | 0.3 | 7.1 | 2.9 | 15.8 | 3.5 | 20.5 | 3.7 | 1.16 | 16 | > 3000 | 0.29 | 971 | 2.2 |
| C=CC(=O)Nc1cc(Nc2ncnc(Nc3cc4ccn(C)c4cc3C(C)(C)O)n2)c(OC)cc1N(C)CCN(C)C [Compound 32, N-(2-((2-(dimethylamino)ethyl)(methyl)amino)-5-(4-(6-(2-hydroxypropan-2-yl)-1-methyl-1H-indol-5-ylamino)-1,3,5-triazin-2-ylamino)-4-methoxyphenyl)acrylamide] | 3.7 | 0.4 | 14.8 | 6 | 35.2 | 11 | 19.1 | 1.8 | 0.26 | 19.3 | > 3000 | 0.29 | 0.71 | 7.8 |
| C=CC(=O)Nc1cc(Nc2ncnc(Nc3cc(F)c(F)cc3C(C)(C)O)n2)c(OC)cc1N(C)CCN1CCCC1 [Compound 18] | 42.4 | 1.1 | 61.1 | 42.8 | 136 | 58.9 | 93.6 | 10.9 | 81.7 | 91.3 | > 3000 | 276 | 446 | 22.1 |
| C=CC(=O)Nc1cc(Nc2ncnc(Nc3cc(F)c(C4CC4)cc3C(C)(C)O)n2)c(OC)cc1N1CC[C@@H]2CN(C)C[C@@H]21 [Compound 45, N-(5-(4-(4-cyclopropyl-5-fluoro-2-(2-hydroxypropan-2-yl)phenylamino)-1,3,5-triazin-2-ylamino)-4-methoxy-2-((3aR,6aR)-5-methylhexahydropyrrolo[3,4-b]pyrrol-1(2H)-yl)phenyl)acrylamide] | 6.5 | 0.3 | 2.9 | 4.3 | 30.8 | 7.6 | 17.8 | 1.1 | 2.33 | 13.6 | > 3000 | 5.25 | 11.6 | 3 |
| C=CC(=O)Nc1cc(Nc2ncnc(Nc3ccc4[nH]ccc4c3C(C)(C)O)n2)c(OC)cc1N(C)CCN(C)C [Compound 94, N-(2-((2-(dimethylamino)ethyl)(methyl)amino)-5-(4-(4-(2-hydroxypropan-2-yl)-1H-indol-5-ylamino)-1,3,5-triazin-2-ylamino)-4-methoxyphenyl)acrylamide] | 17.7 | 0.7 | 28.5 | 16.5 | 141 | 28.9 | 94.9 | 6.4 | 94.8 | 80.9 | > 3000 | 21.6 | 209 | 4.4 |
| C=CC(=O)Nc1cc(Nc2ncnc(Nc3cc(F)c(F)cc3C(C)(O)CC)n2)c(OC)cc1N1CC[C@@H](N(C)C)C1 (stereo partly drawn) [Compound 48, N-(5-(4-(4,5-difluoro-2-(2-hydroxybutan-2-yl)phenylamino)-1,3,5-triazin-2-ylamino)-2-((R)-3-(dimethylamino)pyrrolidin-1-yl)-4-methoxyphenyl)acrylamide] | 16.2 | 0.4 | 11.1 | 14.1 | 57.9 | 28.4 | 57.9 | 3.2 | 70.2 | 29.1 | > 3000 | 14.1 | 371 | 2.8 |
| C=CC(=O)Nc1cc(Nc2nccc(Nc3cc(Cl)c(F)cc3C(C)(C)O)n2)c(OC)cc1N1CC(F)(F)C[C@@H]1CN(C)C [Compound 82, (R)-N-(5-(4-(5-chloro-4-fluoro-2-(2-hydroxypropan-2-yl)phenylamino)pyrimidin-2-ylamino)-2-(2-((dimethylamino)methyl)-4,4-difluoropyrrolidin-1-yl)-4-methoxyphenyl)acrylamide] | 17.2 | 0.9 | 13.8 | 42 | 82.4 | 97.8 | 35.8 | 3.6 | 203 | 77.7 | > 3000 | 76.1 | 310 | 7 |
